How the values were obtained:
[1] = biological target: Cyclin-dependent kinase 4/cyclin D1 (Homo sapiens, UniProt P11802); test: Inhibition of Cyclin-dependent kinase 4-cyclin D1; assay type: protein-complex assay
[2] = biological target: Cyclin-dependent kinase 2/cyclin E (Homo sapiens, UniProt P24941)
Description: Inhibition of Cyclin-dependent kinase 2-cyclin E

[3] = system: HCT-116; test: Inhibition of human colon carcinoma cell (HCT116) proliferation; assay type: functional, cell-based
[4] = biological target: Cyclin-dependent kinase 1/cyclin B (Homo sapiens, UniProt P06493); test: Inhibition of Cyclin-dependent kinase 1-cyclin B; assay type: protein-complex assay

Cyclin-dependent kinase 4/cyclin D1, sequence (P11802 whole entry): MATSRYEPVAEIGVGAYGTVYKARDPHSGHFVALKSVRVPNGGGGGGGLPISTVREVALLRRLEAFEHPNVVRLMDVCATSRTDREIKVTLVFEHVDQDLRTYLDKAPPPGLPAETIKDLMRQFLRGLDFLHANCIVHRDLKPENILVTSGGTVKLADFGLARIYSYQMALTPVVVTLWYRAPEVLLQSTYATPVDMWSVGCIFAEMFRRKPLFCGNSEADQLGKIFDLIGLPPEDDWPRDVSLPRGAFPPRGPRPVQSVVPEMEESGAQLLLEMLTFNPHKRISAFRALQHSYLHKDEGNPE
Cyclin-dependent kinase 4/cyclin D1, sequence (P24385 whole entry, further chain): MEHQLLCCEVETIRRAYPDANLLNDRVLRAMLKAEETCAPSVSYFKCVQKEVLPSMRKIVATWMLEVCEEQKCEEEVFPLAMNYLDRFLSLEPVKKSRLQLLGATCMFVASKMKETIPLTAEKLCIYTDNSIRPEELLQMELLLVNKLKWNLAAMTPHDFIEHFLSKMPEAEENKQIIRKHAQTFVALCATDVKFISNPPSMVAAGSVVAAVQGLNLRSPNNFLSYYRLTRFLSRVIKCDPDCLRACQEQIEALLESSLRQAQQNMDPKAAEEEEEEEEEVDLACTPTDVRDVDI

## CSc1nn(-c2c(Cl)cc(Cl)cc2Cl)c2nc(C3CC3)[nH]c(=O)c12
[1]
  IC50: 4300 nM
[2]
  IC50: 400 nM

## CSCc1nc2c(c(SC)nn2-c2c(Cl)cc(Cl)cc2Cl)c(=O)[nH]1
[1]
  IC50: 15000 nM
[2]
  IC50: 310 nM

## CCc1nn(-c2c(Cl)cc(Cl)cc2Cl)c2nc(Cc3ccc(C)c(O)c3)[nH]c(=O)c12
[3]
  IC50: 670 nM
[1]
  IC50: 80 nM
[2]
  IC50: 20 nM
[4]
  IC50: 520 nM

## CCc1nn(-c2c(Cl)cc(Cl)cc2Cl)c2nc(Cc3ccccn3)[nH]c(=O)c12
[3]
  IC50: 3700 nM
[1]
  IC50: 9700 nM
[2]
  IC50: 230 nM

## CCc1nn(-c2c(Cl)cc(Cl)cc2Cl)c2nc(CCc3cnc[nH]3)[nH]c(=O)c12
[1]
  IC50: 3600 nM
[2]
  IC50: 620 nM

## CCc1nn(-c2c(Cl)cc(Cl)cc2Cl)c2nc(C)n(C)c(=O)c12
[1]
  IC50: > 27000 nM
[2]
  IC50: > 27000 nM

## CCc1nn(-c2c(Cl)cc(Cl)cc2Cl)c2c1S(=O)(=O)NC(C)=N2
[1]
  IC50: > 51000 nM
[2]
  IC50: > 13000 nM

## CSc1nn(-c2c(Cl)cc(Cl)cc2Cl)c2nc(CCCCCO)[nH]c(=O)c12
[1]
  IC50: 10000 nM
[2]
  IC50: 420 nM

## C=Cc1nc2c(c(CC)nn2-c2c(Cl)cc(Cl)cc2Cl)c(=O)[nH]1
[1]
  IC50: 2900 nM
[2]
  IC50: 310 nM

## CSc1nn(-c2c(Cl)cc(Cl)cc2Cl)c2nc[nH]c(=O)c12
[1]
  IC50: 95000 nM
[2]
  IC50: 2700 nM

## CCc1nn(-c2c(Cl)cc(Cl)cc2Cl)c2nc(Cc3cc(O)cc(O)c3)[nH]c(=O)c12
[3]
  IC50: 300 nM
[1]
  IC50: 50 nM
[2]
  IC50: 20 nM

## CCc1nn(-c2c(Cl)cc(Cl)cc2Cl)c2nc(Cc3ccc(O)c(O)c3)[nH]c(=O)c12
[3]
  IC50: 720 nM
[1]
  IC50: 40 nM
[4]
  IC50: 240 nM

## CSc1nn(-c2c(Cl)cc(Cl)cc2Cl)c2nc(CCCO)[nH]c(=O)c12
[1]
  IC50: 13000 nM
[2]
  IC50: 760 nM

## CCc1nn(-c2c(Cl)cc(Cl)cc2Cl)c2nc(Cc3ccccc3OC)[nH]c(=O)c12
[3]
  IC50: 3400 nM
[1]
  IC50: > 22000 nM
[2]
  IC50: 100 nM

## CCc1nn(-c2c(Cl)cc(Cl)cc2Cl)c2nc(C)[nH]c(=O)c12
[1]
  IC50: 1100 nM
[2]
  IC50: 140 nM

## CNCCc1nc2c(c(SC)nn2-c2c(Cl)cc(Cl)cc2Cl)c(=O)[nH]1
[1]
  IC50: 28000 nM
[2]
  IC50: 6600 nM

## CCOC(=O)Cc1cccc(Cc2nc3c(c(CC)nn3-c3c(Cl)cc(Cl)cc3Cl)c(=O)[nH]2)c1
[1]
  IC50: > 1900 nM
[2]
  IC50: 150 nM

## CCc1nn(-c2c(Cl)cc(Cl)cc2Cl)c2nc(Cc3ccc(C)c(OC)c3)[nH]c(=O)c12
[3]
  IC50: 9500 nM
[1]
  IC50: 2100 nM
[2]
  IC50: 110 nM

## CCc1nn(-c2c(Cl)cc(Cl)cc2Cl)c2nc(CC(C)C)[nH]c(=O)c12
[1]
  IC50: > 6300 nM
[2]
  IC50: 110 nM

## CCc1nn(-c2c(Cl)cc(Cl)cc2Cl)c2nc(CCc3ccccc3)[nH]c(=O)c12
[1]
  IC50: 7100 nM
[2]
  IC50: 1800 nM

## CCc1nc2c(c(CC)nn2-c2c(Cl)cc(Cl)cc2Cl)c(=O)[nH]1
[1]
  IC50: 940 nM
[2]
  IC50: 90 nM

## CCc1nn(-c2c(Cl)cc(Cl)cc2Cl)c2nc(CCCCO)[nH]c(=O)c12
[1]
  IC50: 2400 nM
[2]
  IC50: 250 nM

## CSc1nn(-c2c(Cl)cc(Cl)cc2Cl)c2nc(Cc3ccccc3)[nH]c(=O)c12
[1]
  IC50: 11000 nM
[2]
  IC50: 440 nM

## CSc1nn(-c2c(Cl)cc(Cl)cc2Cl)c2nc(CF)[nH]c(=O)c12
[1]
  IC50: 44000 nM
[2]
  IC50: 1600 nM

## CCc1nn(-c2c(Cl)cc(Cl)cc2Cl)c2nc(-c3ccc(OC)c(OC)c3)[nH]c(=O)c12
[1]
  IC50: > 21000 nM
[2]
  IC50: 580 nM

## CCc1nn(-c2c(Cl)cc(Cl)cc2Cl)c2nc(Cc3cccc(NS(C)(=O)=O)c3)[nH]c(=O)c12
[3]
  IC50: 470 nM
[1]
  IC50: 160 nM
[2]
  IC50: 260 nM

## CSc1nn(-c2c(Cl)cc(Cl)cc2Cl)c2nc(CCN(C)C(=O)OC(C)(C)C)[nH]c(=O)c12
[1]
  IC50: > 48000 nM
[2]
  IC50: 19000 nM

## CCc1nn(-c2c(Cl)cc(Cl)cc2Cl)c2nc(Cc3ccccc3O)[nH]c(=O)c12
[3]
  IC50: 5500 nM
[1]
  IC50: > 11000 nM
[2]
  IC50: 120 nM

## CCc1nn(-c2c(Cl)cc(Cl)cc2Cl)c2nc(Cc3ccc(Br)cc3)[nH]c(=O)c12
[3]
  IC50: 2300 nM
[1]
  IC50: > 1200 nM
[2]
  IC50: 50 nM
